# Reference: ChEMBL document CHEMBL1201862, “PubChem BioAssay data set” (2004)
#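 Compound exposure: 48 hours, 5 concentrations, 96-well plates. GI50 marks 50% less growth.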 Active and inactive are the calls of the source. Cut-off read from the data, not from the text of the source: active = GI50 up to about 1.1 µM and inactive = higher.
# Experiments:
# Test in all cases: growth of human tumour cells (NCI), 48 h
# [1] = system: MOLT-4
# [2] = system: NCI/ADR-RES
# [3] = system: IGROV-1
# [4] = system: MDA-MB-435
# [5] = system: HOP-92
# [6] = system: A498
# [7] = system: COLO 205
# [8] = system: UACC-257
# [9] = system: SF-295
# [10] = system: NCI-H522
# [11] = system: HCT-116
# [12] = system: OVCAR-4
# [13] = system: 786-0
# [14] = system: HT-29
# [15] = system: DU-145
# [16] = system: Malme-3M
# [17] = system: CAKI-1
# [18] = system: HL-60
Structure (SMILES),GI50 [1],GI50 [2],GI50 [3],GI50 [4],GI50 [5],GI50 [6],GI50 [7],GI50 [8],GI50 [9],GI50 [10],GI50 [11],GI50 [12],GI50 [13],GI50 [14],GI50 [15],GI50 [16],GI50 [17],GI50 [18]
C=C1C[C@@H](O)[C@@H](Br)C(C)(C)[C@]12CCC(C)(Br)C(Cl)C2 (stereo partly drawn),> 50 µM (inactive),> 50 µM (inactive),> 50 µM (inactive),> 50 µM (inactive),> 50 µM (inactive),> 50 µM (inactive),0.791 µM (active),> 50 µM (inactive),> 50 µM (inactive),> 50 µM (inactive),> 50 µM (inactive),> 50 µM (inactive),> 50 µM (inactive),6.1 µM (inactive),> 50 µM (inactive),> 50 µM (inactive),> 50 µM (inactive),1.03 µM (active)
CCCCn1c(C)c(C(=O)OCC)c2cc(OCc3ccc(C(=O)Nn4c(C)ccc4C)cc3)c(Br)cc21,> 100 µM (inactive),> 100 µM (inactive),> 100 µM (inactive),> 100 µM (inactive),> 100 µM (inactive),> 100 µM (inactive),> 100 µM (inactive),> 100 µM (inactive),> 100 µM (inactive),> 100 µM (inactive),> 100 µM (inactive),> 100 µM (inactive),> 100 µM (inactive),> 100 µM (inactive),> 100 µM (inactive),> 100 µM (inactive),> 100 µM (inactive),> 100 µM (inactive)
CN1C2CCC1CN(CCOC(c1ccc(F)cc1)c1ccc(F)cc1)C2,23.6 µM (inactive),35.4 µM (inactive),36.1 µM (inactive),23.4 µM (inactive),21.4 µM (inactive),24.8 µM (inactive),15.3 µM (inactive),19.1 µM (inactive),19.1 µM (inactive),43.6 µM (inactive),17.8 µM (inactive),43.8 µM (inactive),19.6 µM (inactive),19.5 µM (inactive),57.5 µM (inactive),17.9 µM (inactive),45.8 µM (inactive),12.6 µM (inactive)
Nc1ccc(C(=O)O)cc1.Nc1nc(N)c2nc[nH]c2n1,41.4 µM (inactive),38.5 µM (inactive),29.9 µM (inactive),12.2 µM (inactive),79.3 µM (inactive),13.6 µM (inactive),25.9 µM (inactive),17.5 µM (inactive),25 µM (inactive),17.8 µM (inactive),15.2 µM (inactive),26.4 µM (inactive),26.7 µM (inactive),20.4 µM (inactive),13.8 µM (inactive),69.2 µM (inactive),13.6 µM (inactive),31.4 µM (inactive)
O=C(CCl)Nc1ccc(-c2nc3ccccc3s2)cc1,1.74 µM (inactive),4.59 µM (inactive),1.34 µM (inactive),4.03 µM (inactive),2.36 µM (inactive),6.82 µM (inactive),2.07 µM (inactive),5.66 µM (inactive),6.92 µM (inactive),1.77 µM (inactive),2.16 µM (inactive),3.37 µM (inactive),2 µM (inactive),2.39 µM (inactive),10.4 µM (inactive),2.07 µM (inactive),1.74 µM (inactive),1.91 µM (inactive)
O=C(O)CCSc1ncnc2[nH]cnc12,> 100 µM (inactive),> 100 µM (inactive),> 100 µM (inactive),> 100 µM (inactive),27.1 µM (inactive),> 100 µM (inactive),> 100 µM (inactive),> 100 µM (inactive),> 100 µM (inactive),> 100 µM (inactive),> 100 µM (inactive),> 100 µM (inactive),> 100 µM (inactive),> 100 µM (inactive),> 100 µM (inactive),> 100 µM (inactive),> 100 µM (inactive),> 100 µM (inactive)
O=C1N[C@@H]2O[C@H](CNC(=O)c3cc(Br)c[nH]3)C[C@]2(O)N1.O=C1N[C@H]2O[C@H](CNC(=O)c3cc(Br)c[nH]3)C[C@@]2(O)N1,> 100 µM (inactive),> 100 µM (inactive),> 100 µM (inactive),> 100 µM (inactive),> 100 µM (inactive),> 100 µM (inactive),> 100 µM (inactive),> 100 µM (inactive),> 100 µM (inactive),> 100 µM (inactive),> 100 µM (inactive),> 100 µM (inactive),> 100 µM (inactive),> 100 µM (inactive),> 100 µM (inactive),> 100 µM (inactive),> 100 µM (inactive),> 100 µM (inactive)
O=C(O)C1C2C=CC(O2)C1C(=O)Nc1ncccn1 (stereo not drawn),> 100 µM (inactive),> 100 µM (inactive),> 100 µM (inactive),> 100 µM (inactive),> 100 µM (inactive),> 100 µM (inactive),> 100 µM (inactive),> 100 µM (inactive),> 100 µM (inactive),> 100 µM (inactive),> 100 µM (inactive),> 100 µM (inactive),> 100 µM (inactive),> 100 µM (inactive),> 100 µM (inactive),> 100 µM (inactive),> 100 µM (inactive),> 100 µM (inactive)
CCN(CC)C(=O)CCCCCCCCC1CO1 (stereo not drawn),> 100 µM (inactive),> 100 µM (inactive),> 100 µM (inactive),> 100 µM (inactive),> 100 µM (inactive),> 100 µM (inactive),> 100 µM (inactive),> 100 µM (inactive),> 100 µM (inactive),> 100 µM (inactive),> 100 µM (inactive),> 100 µM (inactive),> 100 µM (inactive),> 100 µM (inactive),> 100 µM (inactive),81.3 µM (inactive),> 100 µM (inactive),21.1 µM (inactive)
COc1cc(C2S/C(=C/c3ccccc3)C(=O)N2c2ccccn2)cc(OC)c1OC (stereo not drawn),9.55 µM (inactive),19.5 µM (inactive),11 µM (inactive),11.5 µM (inactive),8.3 µM (inactive),13.2 µM (inactive),29 µM (inactive),33.1 µM (inactive),24.5 µM (inactive),7.18 µM (inactive),7.16 µM (inactive),19.2 µM (inactive),14.3 µM (inactive),11 µM (inactive),10.3 µM (inactive),13.4 µM (inactive),20.1 µM (inactive),12.4 µM (inactive)
CSc1cc(-c2ccccn2)nc(-c2ccccn2)c1,0.0421 µM (active),0.0944 µM (active),0.102 µM (active),0.327 µM (active),0.0959 µM (active),0.769 µM (active),0.125 µM (active),0.481 µM (active),0.0566 µM (active),0.385 µM (active),0.0682 µM (active),0.0828 µM (active),0.0546 µM (active),0.149 µM (active),0.097 µM (active),0.102 µM (active),0.065 µM (active),0.0492 µM (active)
